Reference: ChEMBL document CHEMBL1149137, “Synthesis, screening, and molecular modeling of new potent and selective antagonists at the alpha 1d adrenergic receptor” (J Med Chem, 2004)

How the values were obtained:
[1] = biological target: T1, 5-hydroxytryptamine receptor 1A (Homo sapiens, UniProt P08908); assay: Binding affinity to human 5-hydroxytryptamine 1A receptor was measured using [3H]-8-hydroxy-2-(di-n-propylamine) tetraline [3H]8-OH-DPAT) as radioligand
T1 sequence (P08908 whole entry): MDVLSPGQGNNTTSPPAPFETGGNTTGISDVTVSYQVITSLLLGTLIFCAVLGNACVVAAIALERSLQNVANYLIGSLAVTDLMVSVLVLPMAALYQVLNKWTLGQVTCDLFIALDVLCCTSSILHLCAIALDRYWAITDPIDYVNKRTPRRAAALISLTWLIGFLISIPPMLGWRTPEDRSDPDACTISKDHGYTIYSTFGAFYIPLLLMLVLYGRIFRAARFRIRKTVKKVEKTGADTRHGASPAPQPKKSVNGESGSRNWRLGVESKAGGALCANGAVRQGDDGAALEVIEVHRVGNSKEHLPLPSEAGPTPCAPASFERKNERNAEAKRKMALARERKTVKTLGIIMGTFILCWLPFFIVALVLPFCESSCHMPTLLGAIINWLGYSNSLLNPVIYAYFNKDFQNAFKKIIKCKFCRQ

[2] = biological target: Alpha-1D adrenergic receptor (Homo sapiens) (UniProt P25100); assay: Binding affinity to the adrenergic receptor alpha-1D of cloned human receptor
[3] = biological target: Alpha-1A adrenergic receptor (Homo sapiens) (UniProt P35348); assay: In vitro binding affinity towards alpha-1A adrenergic receptor through displacement of [3H]prazosin in cloned human receptor.

| Compound | Ki [1] [nM] | Ki [2] [nM] | Ki [3] [nM] |
| --- | --- | --- | --- |
| CC(C)c1ccc(N2CCN(CCN3C(=O)CC4(CCCC4)CC3=O)CC2)cc1 | > 1000 | > 1000 |  |
| COc1cccc(N2CCN(CCN3C(=O)CC4(CCCC4)CC3=O)CC2)c1 | 13.4 | 54.3 | > 1000 |
| CC1CN(c2ccccc2[N+](=O)[O-])CC(C)N1CCN1C(=O)CC2(CCCC2)CC1=O (stereo unspecified) | 399 | > 1000 |  |
| COc1ccccc1OCCN(C)CCN1C(=O)CC2(CCCC2)CC1=O | 259 | 18.2 | > 1000 |
| O=C1CCC(=O)N1CCN1CCN(c2cc(Cl)ccc2Cl)CC1 |  | 7.78 |  |
| Cc1ccc(N2CCN(CCN3C(=O)CC4(CCCC4)CC3=O)CC2)c(C)c1 | 2360 | 73.3 |  |
| CN(C(=O)CNCCN1C(=O)CC2(CCCC2)CC1=O)c1cc(Cl)ccc1Cl | > 1000 | > 1000 |  |
| Clc1ccccc1N1CCN(CCN2CCC3(CCCC3)CC2)CC1 | 85.4 | 8.74 | > 1000 |
| O=C1CC2(CCCC2)CC(=O)N1CCNCCOc1ccccc1Cl | > 1000 | > 1000 |  |
| O=C1CC2(CCCC2)CC(=O)N1CCN1CCN(c2cc(C(F)(F)F)ccc2Cl)CC1 | > 1000 | 39.1 |  |
| COc1ccccc1N1CCN(CCN2C(=O)CC3(CCN(Cc4ccccc4)CC3)CC2=O)CC1 | > 1000 | 35.1 | 294 |
| COc1ccccc1N1CCN(CCN2C(=O)CC3(CCNCC3)CC2=O)CC1 | > 1000 | 71.7 | 631 |
| O=C1CC2(CCCC2)CC(=O)N1CCN1CCN(c2ccccc2)CC1 | 35.7 | 4.32 | 3350 |
| CCOC(=O)c1ccccc1N1CCN(CCN2C(=O)CC3(CCCC3)CC2=O)CC1 | 4.07 | 29 |  |
| COc1ccccc1OCCNCCN1C(=O)CC2(CCCC2)CC1=O | 526 | > 1000 |  |
| Cc1ccc(C)c(N2CCN(CCN3C(=O)CC4(CCCC4)CC3=O)CC2)c1 |  | 10.1 | 119 |
| O=C1CC2(CCCC2)CC(=O)N1CCN1CCN(c2ccc(Cl)cc2)CC1 | 599 | 35.9 |  |
| CN(CCNc1cc(Cl)ccc1Cl)CCN1C(=O)CC2(CCCC2)CC1=O | 717 | 674 |  |
| O=C1CC2(CCCC2)CC(=O)N1CCN1CCN(c2cccc(C(F)(F)F)c2)CC1 | 8.22 | 153 |  |
| CN(CCOc1ccccc1Cl)CCN1C(=O)CC2(CCCC2)CC1=O | 125 | 14.8 |  |
| COc1ccccc1N1CCN(CCN2C(=O)CC3(CCN(C(C)=O)CC3)CC2=O)CC1 | > 10 | 429 | 1520 |
| O=C1CC2(CCCC2)CC(=O)N1CCN1CCN(c2cc([N+](=O)[O-])ccc2F)CC1 | > 1000 | 46.3 |  |
| O=C1CC2(CCCC2)CC(=O)N1CCN1CCN(c2ccccc2[N+](=O)[O-])CC1 | 11.3 | 15.3 |  |
| O=C1CC2(CCCC2)CC(=O)N1CCN1CCN(c2ccc(F)cc2)CC1 | 153 | 24.1 |  |
| O=C1CC2(CCCC2)CC(=O)N1CCN1CCN(c2ccccc2O)CC1 | 1.36 | 16.1 |  |

| Compound | Ki [1] [nM] | Ki [2] [nM] | Ki [3] [nM] |
| --- | --- | --- | --- |
| O=C1CC2(CCCC2)CC(=O)N1CCN1CCN(c2cc(I)ccc2Cl)CC1 |  | 15.3 | 479 |
| CN(CCN1C(=O)CC2(CCCC2)CC1=O)CC(=O)Nc1cc(Cl)ccc1Cl | > 10000 | > 1000 |  |
| O=C1CC2(CCCC2)C(=O)N1CCN1CCN(c2cc(Cl)ccc2Cl)CC1 |  | 3.11 | 68.3 |
| CN(CCCOc1cc(Cl)ccc1Cl)CCN1C(=O)CC2(CCCC2)CC1=O | 452 | 110 |  |
| O=C1CC2(CCCC2)CC(=O)N1CCN1CCN(c2ccccc2C(F)(F)F)CC1 | 26.3 | 5.25 |  |
| O=C1CC2(CCCC2)CC(=O)N1CCN1CCN(c2cc(Br)ccc2Br)CC1 |  | 3.72 | 114 |
| O=C1C=CC(=O)N1CCN1CCN(c2cc(Cl)ccc2Cl)CC1 | > 1000 | 126 |  |
| CC1CN(c2ccccc2[N+](=O)[O-])CCN1CCN1C(=O)CC2(CCCC2)CC1=O (stereo unspecified) | 86.2 | 597 |  |
| CN(CCN1C(=O)CC2(CCCC2)CC1=O)CC(=O)N(C)c1cc(Cl)ccc1Cl | > 1000 | > 1000 |  |
| O=C1CC2(CCCC2)CC(=O)N1CCN1CCN(c2cc(C(F)(F)F)ccc2F)CC1 |  | 7.56 | > 1000 |
| O=C1CC2(CCCC2)CC(=O)N1CCN1CCN(c2c(Cl)cccc2Cl)CC1 | 234 | 29.9 |  |
| O=C1CC2(CCCC2)CC(=O)N1CCN1CCN(c2cc([N+](=O)[O-])ccc2Cl)CC1 | > 1000 | 18.2 | 44 |
| CN(CCOc1cc(Cl)ccc1Cl)CCN1C(=O)CC2(CCCC2)CC1=O | > 1000 | 19.1 | 414 |
| CC1(C)CC(=O)N(CCN2CCN(c3ccccc3Cl)CC2)C(=O)C1 | 65.8 | 23.4 |  |
| O=C1CC2(CCCC2)CC(=O)N1CCN1CCN(c2ccc(Cl)cc2Cl)CC1 | 12.1 | 3.89 |  |
| O=C1CC2(CCCC2)CC(=O)N1CCN1CCN(c2ccccc2F)CC1 |  |  | > 1000 |
| COc1ccccc1N1CCN(CCN2C=CC3(CCCC3)CC2=O)CC1 | 3.84 | 3.15 | 29.2 |
| O=C1CC2(CCCC2)CC(=O)N1CCN1CCN(c2ccc(Cl)c(Cl)c2)CC1 | 19.8 | 5.38 |  |
| COc1ccc(N2CCN(CCN3C(=O)CC4(CCCC4)CC3=O)CC2)cc1 | 54.6 | 37.8 |  |
| CN(CCCN(C)c1cc(Cl)ccc1Cl)CCN1C(=O)CC2(CCCC2)CC1=O | > 1000 | 110 |  |
| O=C1CC2(CCCC2)CC(=O)N1CCNCCOc1cc(Cl)ccc1Cl | > 1000 | 207 |  |
| O=C1CC2(CCCC2)CC(=O)N1CCN1CCC(c2ccccc2)CC1 | 25.9 | 3.66 | > 1000 |
| CN(CCN1C(=O)CC2(CCCC2)CC1=O)CCN(C)c1cc(Cl)ccc1Cl |  | 16.4 | 786 |
| O=C1CC2(CCCC2)CC(=O)N1CCN1CCN(c2cccc(Cl)c2Cl)CC1 | 3.37 | 12.7 |  |

Next, values leading:

| Ki [1] [nM] | Ki [2] [nM] | Ki [3] [nM] | Compound |
| --- | --- | --- | --- |
|  | 2.21 | 331 | O=C1CC2(CCCCC2)CC(=O)N1CCN1CCN(c2cc(Cl)ccc2Cl)CC1 |
|  | 0.41 | 187 | CC(CN1CCN(c2cc(Cl)ccc2Cl)CC1)N1C(=O)CC2(CCCC2)CC1=O (stereo unspecified) |
| 1.29 | 1.6 | 376 | O=C1CC2(CCCC2)CC(=O)N1CCN1CCN(c2ccccc2Br)CC1 |
| 25.4 | 2.16 | 584 | Cc1ccccc1N1CCN(CCN2C(=O)CC3(CCCC3)CC2=O)CC1 |
| 1.2 | 1.34 | 10.9 | O=C1CC2(CCCC2)CC(=O)N1CCN1CCN(c2ccccc2C2CC2)CC1 |
| 2.33 | 0.37 | 54.4 | COc1ccccc1N1CCN(CCN2CCC3(CCCC3)CC2=O)CC1 |
| 1.06 | 0.54 | 87.5 | O=C1CC2(CCCC2)CCN1CCN1CCN(c2ccccc2Cl)CC1 |
| 61 | 0.14 |  | O=C1CC2(CCCC2)CC(=O)N1CCN1CCN(c2cc(F)ccc2F)CC1 |
| 20 | 2.88 | 422 | O=C1CC2(CCCCC2)CC(=O)N1CCN1CCN(c2ccccc2Cl)CC1 |
|  | 2.38 | > 1000 | Cc1ccc(F)c(N2CCN(CCN3C(=O)CC4(CCCC4)CC3=O)CC2)c1 |
|  | 1.5 | 119 | O=C1CC2(CCCC2)CC(=O)N1CCN1CCC(c2cc(Cl)ccc2Cl)CC1 |
| 0.54 | 2.9 | 3.54 | CC(C)Oc1ccccc1N1CCN(CCN2C(=O)CC3(CCCC3)CC2=O)CC1 |
| 5.37 | 0.93 | 214 | N#Cc1ccccc1N1CCN(CCN2C(=O)CC3(CCCC3)CC2=O)CC1 |
| 135 | 0.37 | 190 | Cc1ccc(Cl)cc1N1CCN(CCN2C(=O)CC3(CCCC3)CC2=O)CC1 |
|  | 0.2 | 503 | N#Cc1ccc(Cl)cc1N1CCN(CCN2C(=O)CC3(CCCC3)CC2=O)CC1 |
| 5.25 | 1.11 | 2.01 | O=C1CC2(CCCC2)CC(=O)N1CCN1CCC(c2ccccc2Cl)CC1 |
| 9.38 | 0.84 | 53.9 | O=C1CC2(C=CN1CCN1CCN(c3ccccc3Cl)CC1)CCCC2 |
| 4.24 | 0.83 | 552 | O=C1CC2(CCCC2)CC(=O)N1CCN1CCN(c2ccccc2Cl)CC1 |
| 0.34 | 1.38 | 295 | O=C1CC2(CCCC2)CC(=O)N1CCN1CCCN(c2ccccc2Cl)CC1 |
|  | 0.18 | 108 | O=C1CC2(CCCC2)CC(=O)N1CCN1CCN(c2cc(F)ccc2Cl)CC1 |
|  | 2.65 | 120 | O=C1CC2(CCC2)CC(=O)N1CCN1CCN(c2cc(Cl)ccc2Cl)CC1 |
| 1.09 | 2.02 | > 1000 | O=C1CC2(CCCC2)CC(=O)N1CCN1CCN(c2cccc(Cl)c2)CC1 |
| 401 | 1.72 | 2.85 | O=C1CC2(CCCC2)CC(=O)N1CCCN1CCN(c2cc(Cl)ccc2Cl)CC1 |
| 26.1 | 0.67 | 1.81 | O=C1CC2(CCCC2)CC(=O)N1CCCCN1CCN(c2cc(Cl)ccc2Cl)CC1 |
